# Results: the supplement of paper PMC10307832
# Key:
# Experiment in all cases: relative viability (nuclei count vs DMSO), 5 days (fraction); higher = more cells survive
# Bexarotene + Linsitinib = compound: C=C(c1ccc(C(=O)O)cc1)c1cc2c(cc1C)C(C)(C)CCC2(C)C [Bexarotene] + C[C@]1(O)C[C@@H](c2nc(-c3ccc4ccc(-c5ccccc5)nc4c3)c3c(N)nccn32)C1 [Linsitinib] (partner 1 µM)
# How it was run: (§1)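 A single step with final 0.05% Triton X-100, 1% formaldehyde and 1 ug/ml Hoechst fixed the cells and stained nuclei 5 days after treatment. Lung cancer cell lines in 1536-well plates had been treated by pin tool the day after seeding with one drug alone or a fixed anchor-drug dose plus five library-drug doses (not always all listed) in √10 steps, and nuclei were counted on 4× images. Relative viability is the ratio of nuclei in treated wells to nuclei in vehicle wells, taken as the median of duplicate plates.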
# Bexarotene + Lapatinib = compound: C=C(c1ccc(C(=O)O)cc1)c1cc2c(cc1C)C(C)(C)CCC2(C)C [Bexarotene] + CS(=O)(=O)CCNCc1ccc(-c2ccc3ncnc(Nc4ccc(OCc5cccc(F)c5)c(Cl)c4)c3c2)o1 [Lapatinib] (partner 2 µM)
# How it was run: as §1
# Bexarotene + OSI-027 = compound: C=C(c1ccc(C(=O)O)cc1)c1cc2c(cc1C)C(C)(C)CCC2(C)C [Bexarotene] + COc1cccc2cc(-c3nc([C@H]4CC[C@H](C(=O)O)CC4)n4ncnc(N)c34)[nH]c12 [OSI-027] (partner 0.5 µM)
# How it was run: as §1
# Bexarotene + Alpelisib = compound: C=C(c1ccc(C(=O)O)cc1)c1cc2c(cc1C)C(C)(C)CCC2(C)C [Bexarotene] + Cc1nc(NC(=O)N2CCC[C@H]2C(N)=O)sc1-c1ccnc(C(C)(C)C(F)(F)F)c1 [Alpelisib] (partner 2 µM)
# How it was run: as §1
Cell Line,relative viability (Bexarotene + Linsitinib; first compound 0.08 µM),relative viability (Bexarotene + Linsitinib; first compound 0.253 µM),relative viability (Bexarotene + Linsitinib; first compound 0.8 µM),relative viability (Bexarotene + Linsitinib; first compound 2.53 µM),relative viability (Bexarotene + Linsitinib; first compound 8 µM),relative viability (Bexarotene + Lapatinib; first compound 0.08 µM),relative viability (Bexarotene + Lapatinib; first compound 0.253 µM),relative viability (Bexarotene + Lapatinib; first compound 0.8 µM),relative viability (Bexarotene + Lapatinib; first compound 2.53 µM),relative viability (Bexarotene + Lapatinib; first compound 8 µM),relative viability (Bexarotene + OSI-027; first compound 0.08 µM),relative viability (Bexarotene + OSI-027; first compound 0.253 µM),relative viability (Bexarotene + OSI-027; first compound 0.8 µM),relative viability (Bexarotene + OSI-027; first compound 2.53 µM),relative viability (Bexarotene + OSI-027; first compound 8 µM),relative viability (Bexarotene + Alpelisib; first compound 0.08 µM),relative viability (Bexarotene + Alpelisib; first compound 0.253 µM),relative viability (Bexarotene + Alpelisib; first compound 0.8 µM),relative viability (Bexarotene + Alpelisib; first compound 2.53 µM),relative viability (Bexarotene + Alpelisib; first compound 8 µM)
NCI-H2405,1.1,0.946,0.695,0.973,0.912,1.16,1.07,0.824,1.08,1.24,0.675,0.674,0.512,0.708,0.65,0.935,0.915,0.52,0.806,0.864
NCI-H3122,1.14,1.08,1.1,1.07,1.14,1.09,1.06,1.12,1.08,1.12,1.09,1.09,1.05,0.989,1.07,0.782,0.8,0.784,0.786,0.847
PC-3 [JPC-3],0.98,1.03,0.829,0.882,0.827,0.519,0.48,0.427,0.466,0.446,0.816,0.798,0.604,0.733,0.676,1.06,1.08,0.815,0.984,0.932
PC-14,0.99,1.06,0.935,1,0.934,0.347,0.401,0.365,0.327,0.337,0.88,0.938,0.743,0.836,0.647,1.02,1.06,0.9,0.957,0.921
RERF-LC-KJ,0.8,0.827,0.755,0.782,0.83,0.798,0.799,0.702,0.767,0.757,0.522,0.572,0.539,0.562,0.506,0.712,0.784,0.723,0.715,0.77
SK-LU-1,1.22,1.12,,0.93,1.23,0.938,0.955,,1,0.692,0.41,0.395,,0.352,0.351,1.11,1.06,,0.97,0.988
SK-MES-1,1.15,1.18,0.983,1.05,0.97,0.512,0.45,0.565,0.558,0.509,0.638,0.708,0.563,0.603,0.525,1.06,0.948,0.961,0.893,0.956
SW 1573,0.777,0.608,0.681,0.754,0.536,1.09,1,1.1,0.919,0.916,0.696,0.58,0.564,0.469,0.471,0.706,0.454,0.51,0.454,0.422
UMC-11,1.08,1.01,1.04,0.978,0.998,0.943,0.907,0.894,0.803,0.916,0.468,0.515,0.419,0.436,0.432,0.971,1.02,0.954,1.04,0.955
